Measurements: ChEMBL document CHEMBL1201862, “PubChem BioAssay data set” (2004)
Calls of active or inactive are those of the source.

Key:
[1] = test system: Escherichia coli; assay: microbe, parasite or virus in culture
[2] = target: FAD-linked sulfhydryl oxidase ALR (Homo sapiens, UniProt P55789); assay: inhibitors of human ALR sulfhydryl oxidase, dose response, biochemical, H2O2 detection, luminescence, cherry-pick (AID 493248)
[3] = target: Phospholipase A2 (Homo sapiens, UniProt P04054); type: functional;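 also: confirmatory dose-response counterscreen on phospholipase A2, testing hits that came from an ultra-high-throughput screen for ATG4B inhibitors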
[4] = target: T1, Cysteine protease ATG4B (Homo sapiens, UniProt Q9Y4P1); type: functional;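 also: Fluorescence-based dose-response confirmation assay measuring inhibition of ATG4B activity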
T1 sequence (Q9Y4P1 whole entry): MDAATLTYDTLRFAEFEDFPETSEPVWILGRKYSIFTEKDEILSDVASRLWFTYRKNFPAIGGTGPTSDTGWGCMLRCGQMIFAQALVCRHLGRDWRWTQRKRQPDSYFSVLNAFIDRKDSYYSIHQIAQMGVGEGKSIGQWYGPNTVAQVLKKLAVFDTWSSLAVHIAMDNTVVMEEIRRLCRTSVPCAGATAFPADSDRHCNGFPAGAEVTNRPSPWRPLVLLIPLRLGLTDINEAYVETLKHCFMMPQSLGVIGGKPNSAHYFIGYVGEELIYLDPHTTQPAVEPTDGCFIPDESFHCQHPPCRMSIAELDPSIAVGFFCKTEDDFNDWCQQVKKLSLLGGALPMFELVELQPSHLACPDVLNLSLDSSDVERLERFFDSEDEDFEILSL

[5] = target: 26S proteasome non-ATPase regulatory subunit 14 (Homo sapiens, UniProt O00487); assay: inhibition of proteasome subunit RPN11 – biochemical, fluorescence polarization, uHTS hits, confirmation (AID 602368); type: functional
[6] = test system: Streptococcus sp. 'group A'; assay: growth inhibition of control SK(-) GAS strain, dose response, counter-screen for streptokinase expression inhibitor project, luminescence, kanamycin, BacTiterGlo, confirmation (AID 1900); type: functional, organism-based
[7] = target: Prothrombin (Bos taurus, UniProt P00735); assay: thrombin inhibition, dose response, biochemical, fluorescence polarization, uHTS hits (AID 602369); type: functional
[8] = test system: Streptococcus; assay: Group A Streptococcus viability loss, dose response, counter-screen for streptokinase expression inhibitor project, luminescence, BacTiterGlo (AID 1915); type: functional, organism-based;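 also: potency for reduction of bacterial viability or growth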
[9] = target: 72 kDa type IV collagenase (Homo sapiens, UniProt P08253); assay: Dose Response validation of uHTS RPN11 inhibitor hits using a MMP-2 Fluorescence assay.; type: functional
[10] = target: T2, Tyrosine-protein phosphatase non-receptor type 7 (Homo sapiens, UniProt P35236); type: functional
T2 sequence (P35236 whole entry): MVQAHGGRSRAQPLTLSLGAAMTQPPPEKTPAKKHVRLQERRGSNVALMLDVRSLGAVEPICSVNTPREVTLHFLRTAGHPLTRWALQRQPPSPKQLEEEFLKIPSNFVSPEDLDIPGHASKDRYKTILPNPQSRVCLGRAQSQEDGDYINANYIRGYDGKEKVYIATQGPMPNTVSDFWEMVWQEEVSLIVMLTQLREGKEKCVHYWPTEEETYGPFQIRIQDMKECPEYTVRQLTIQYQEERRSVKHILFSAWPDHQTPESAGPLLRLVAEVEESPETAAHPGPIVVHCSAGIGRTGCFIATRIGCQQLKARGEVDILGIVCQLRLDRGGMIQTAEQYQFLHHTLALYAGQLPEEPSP

[11] = target: T3, Dual specificity protein phosphatase 6 (Rattus norvegicus, UniProt Q64346)
T3 sequence (Q64346 whole entry): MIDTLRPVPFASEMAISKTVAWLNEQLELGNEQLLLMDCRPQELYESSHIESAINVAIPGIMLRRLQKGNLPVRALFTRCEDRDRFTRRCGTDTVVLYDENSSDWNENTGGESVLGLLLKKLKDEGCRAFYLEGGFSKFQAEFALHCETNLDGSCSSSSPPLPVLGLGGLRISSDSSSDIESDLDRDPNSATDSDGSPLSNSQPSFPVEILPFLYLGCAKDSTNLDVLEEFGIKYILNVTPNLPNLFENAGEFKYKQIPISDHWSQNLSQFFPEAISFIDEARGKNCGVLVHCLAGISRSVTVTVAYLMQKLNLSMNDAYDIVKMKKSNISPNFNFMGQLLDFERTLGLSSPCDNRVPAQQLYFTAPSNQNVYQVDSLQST

[12] = target: Glyceraldehyde-3-phosphate dehydrogenase (Homo sapiens, UniProt P04406)
[13] = target: T3, Dual specificity protein phosphatase 6; type: functional
[14] = target: Heat shock cognate 71 kDa protein (Homo sapiens, UniProt P11142); assay: In Vitro Hsc70 Dose Response Fluorescence Polarization Assay. [Related pubchem assays: 1072 ]
[15] = target: Heat shock 70 kDa protein 1A (Homo sapiens, UniProt P0DMV8); assay: Hsp70 inhibitors, SAR follow-up, biochemical, fluorescence polarization (AID 1072)
[16] = target: T3, Dual specificity protein phosphatase 6; assay: MKP-3 phosphatase inhibitors, primary screen, biochemical, rat enzyme, in vitro (AID 425)
[17] = target: T4, Carboxy-terminal domain RNA polymerase II polypeptide A small phosphatase 1 (Homo sapiens, UniProt Q9GZU7); assay: inhibitors of CTDSP1, concentration-response testing, biochemical assay, absorbance-based, actives from ultra-high-throughput screening (AID 540297); type: functional
T4 sequence (Q9GZU7 whole entry): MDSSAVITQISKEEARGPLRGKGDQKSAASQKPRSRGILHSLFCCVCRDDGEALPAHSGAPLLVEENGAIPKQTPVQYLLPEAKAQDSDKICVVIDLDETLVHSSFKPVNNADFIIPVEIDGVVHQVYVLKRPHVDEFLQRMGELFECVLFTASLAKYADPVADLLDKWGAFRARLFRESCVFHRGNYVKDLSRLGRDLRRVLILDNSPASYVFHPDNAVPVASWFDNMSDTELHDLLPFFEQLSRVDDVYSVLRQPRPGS

[18] = Vero E6 cell cytotoxicity, dose response, cytotoxicity control for non-replicating M. tuberculosis project, secondary assay (AID 492998); type: functional, VeroE6; details: Vero C1008
[19] = target: Tumor necrosis factor (Homo sapiens, UniProt P01375); assay: TNFa-triggered NF-kB activation inhibitors, SAR follow-up, cell-based, revised (AID 2337); type: functional
[20] = cells; type: functional
[21] = test system: HEK293; assay: cells; details: Homo sapiens;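 also: cells exposed to compound for 14 hours overnight before viability readout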
[22] = target: Nucleotide-binding oligomerization domain-containing protein 2 (Homo sapiens, UniProt Q9HC29); assay: PubChem AID 2334; type: functional
[23] = THP-1 cell cytotoxicity, dose response, cytotoxicity control for non-replicating M. tuberculosis project (AID 489025); type: functional
[24] = target: T5, Nucleotide-binding oligomerization domain-containing protein 1 (Homo sapiens, UniProt Q9Y239); assay: NOD1 signaling inhibitors, SAR follow-up, revised (AID 2333); type: functional
T5 sequence (Q9Y239 whole entry): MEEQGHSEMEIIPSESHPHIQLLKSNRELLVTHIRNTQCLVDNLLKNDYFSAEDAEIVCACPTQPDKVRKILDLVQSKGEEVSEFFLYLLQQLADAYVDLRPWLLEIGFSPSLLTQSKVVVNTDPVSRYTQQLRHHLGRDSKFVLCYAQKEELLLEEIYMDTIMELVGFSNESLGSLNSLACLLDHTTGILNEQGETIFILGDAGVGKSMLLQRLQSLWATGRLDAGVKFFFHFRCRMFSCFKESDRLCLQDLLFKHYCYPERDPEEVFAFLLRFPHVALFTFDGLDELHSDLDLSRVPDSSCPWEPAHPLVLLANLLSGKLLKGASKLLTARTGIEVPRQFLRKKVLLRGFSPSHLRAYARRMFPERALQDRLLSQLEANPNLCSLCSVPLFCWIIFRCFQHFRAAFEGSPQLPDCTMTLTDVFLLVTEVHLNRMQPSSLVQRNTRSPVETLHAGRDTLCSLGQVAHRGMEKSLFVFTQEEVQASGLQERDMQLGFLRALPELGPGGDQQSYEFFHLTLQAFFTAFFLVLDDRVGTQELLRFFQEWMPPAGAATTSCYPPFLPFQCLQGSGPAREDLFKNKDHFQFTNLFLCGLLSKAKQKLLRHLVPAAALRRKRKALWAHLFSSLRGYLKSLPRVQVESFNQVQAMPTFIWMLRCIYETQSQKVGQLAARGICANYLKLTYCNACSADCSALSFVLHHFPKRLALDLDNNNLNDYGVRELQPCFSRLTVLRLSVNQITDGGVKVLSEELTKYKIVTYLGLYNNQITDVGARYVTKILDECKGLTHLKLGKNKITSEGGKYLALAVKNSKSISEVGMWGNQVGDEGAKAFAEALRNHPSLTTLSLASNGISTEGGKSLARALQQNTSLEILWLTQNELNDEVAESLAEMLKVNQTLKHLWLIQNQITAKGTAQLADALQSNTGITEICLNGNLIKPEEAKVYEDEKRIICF

[25] = target: Cytochrome P450 2D6 (Homo sapiens, UniProt P10635);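 also: CYP2D6 member of a cytochrome P450 panel assay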
[26] = target: Voltage-dependent T-type calcium channel subunit alpha-1H (Homo sapiens, UniProt O95180); type: functional;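 also: channel activity triggered by adding a high calcium stimulation buffer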
[27] = target: Dual specificity tyrosine-phosphorylation-regulated kinase 1A (Rattus norvegicus, UniProt Q63470); type: biochemical, Homo sapiens

Chain of Phospholipase A2 (P04054 whole entry): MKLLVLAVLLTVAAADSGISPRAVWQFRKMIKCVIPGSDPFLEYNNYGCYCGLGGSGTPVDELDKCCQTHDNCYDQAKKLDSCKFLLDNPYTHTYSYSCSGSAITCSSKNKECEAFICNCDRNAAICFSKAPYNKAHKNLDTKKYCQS
Chain of Glyceraldehyde-3-phosphate dehydrogenase (P04406 whole entry): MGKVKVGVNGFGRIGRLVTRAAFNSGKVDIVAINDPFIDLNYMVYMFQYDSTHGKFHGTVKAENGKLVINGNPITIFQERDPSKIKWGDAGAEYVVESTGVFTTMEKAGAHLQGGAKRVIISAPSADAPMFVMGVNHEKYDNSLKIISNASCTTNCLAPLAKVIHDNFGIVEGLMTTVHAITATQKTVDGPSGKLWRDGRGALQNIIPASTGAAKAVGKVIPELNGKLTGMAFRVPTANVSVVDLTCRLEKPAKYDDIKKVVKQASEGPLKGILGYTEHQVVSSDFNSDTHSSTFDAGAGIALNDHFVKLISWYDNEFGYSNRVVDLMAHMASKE
Chain of Tumor necrosis factor (P01375 whole entry): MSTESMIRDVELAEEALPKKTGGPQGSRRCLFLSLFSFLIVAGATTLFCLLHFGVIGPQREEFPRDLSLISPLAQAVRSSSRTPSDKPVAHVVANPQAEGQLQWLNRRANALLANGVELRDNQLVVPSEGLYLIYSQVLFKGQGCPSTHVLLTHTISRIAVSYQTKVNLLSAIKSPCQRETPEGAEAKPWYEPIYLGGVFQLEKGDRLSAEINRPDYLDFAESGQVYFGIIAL
Chain of Heat shock 70 kDa protein 1A (P0DMV8 whole entry): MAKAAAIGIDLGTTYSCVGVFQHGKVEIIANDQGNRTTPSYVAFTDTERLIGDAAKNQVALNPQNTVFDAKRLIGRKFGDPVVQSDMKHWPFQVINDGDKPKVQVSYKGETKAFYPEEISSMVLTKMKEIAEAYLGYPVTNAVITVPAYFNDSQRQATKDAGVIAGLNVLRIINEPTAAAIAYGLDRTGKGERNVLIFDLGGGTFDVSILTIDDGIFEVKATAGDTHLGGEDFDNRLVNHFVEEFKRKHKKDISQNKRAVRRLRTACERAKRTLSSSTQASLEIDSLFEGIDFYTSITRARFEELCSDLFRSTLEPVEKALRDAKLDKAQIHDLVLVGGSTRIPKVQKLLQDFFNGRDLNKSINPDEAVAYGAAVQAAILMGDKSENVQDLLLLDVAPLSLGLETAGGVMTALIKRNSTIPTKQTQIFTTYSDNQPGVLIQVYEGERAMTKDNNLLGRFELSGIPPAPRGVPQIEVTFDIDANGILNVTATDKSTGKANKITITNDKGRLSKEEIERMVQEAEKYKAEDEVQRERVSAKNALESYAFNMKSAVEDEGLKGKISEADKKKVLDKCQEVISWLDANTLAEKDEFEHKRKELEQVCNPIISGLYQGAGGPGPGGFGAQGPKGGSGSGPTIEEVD
Chain of Heat shock cognate 71 kDa protein (P11142 whole entry): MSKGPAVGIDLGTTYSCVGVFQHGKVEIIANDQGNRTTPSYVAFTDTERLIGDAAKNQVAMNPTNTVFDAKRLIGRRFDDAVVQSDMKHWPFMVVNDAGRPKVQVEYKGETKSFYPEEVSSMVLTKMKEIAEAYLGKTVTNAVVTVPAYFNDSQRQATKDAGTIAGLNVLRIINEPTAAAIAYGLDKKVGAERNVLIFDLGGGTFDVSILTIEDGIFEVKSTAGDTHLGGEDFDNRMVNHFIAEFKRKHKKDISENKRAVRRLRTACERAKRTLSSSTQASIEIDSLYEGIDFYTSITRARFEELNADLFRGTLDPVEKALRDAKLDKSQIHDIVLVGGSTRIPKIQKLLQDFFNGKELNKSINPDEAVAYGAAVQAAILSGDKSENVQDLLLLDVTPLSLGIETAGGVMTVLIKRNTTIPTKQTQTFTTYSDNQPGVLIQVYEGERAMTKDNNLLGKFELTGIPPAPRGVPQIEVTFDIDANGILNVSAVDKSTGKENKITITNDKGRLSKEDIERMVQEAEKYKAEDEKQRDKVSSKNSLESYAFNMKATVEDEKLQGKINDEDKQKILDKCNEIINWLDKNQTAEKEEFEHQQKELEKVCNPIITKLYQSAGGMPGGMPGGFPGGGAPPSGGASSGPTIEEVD
Chain of Nucleotide-binding oligomerization domain-containing protein 2 (Q9HC29 whole entry, the tested form may be a part): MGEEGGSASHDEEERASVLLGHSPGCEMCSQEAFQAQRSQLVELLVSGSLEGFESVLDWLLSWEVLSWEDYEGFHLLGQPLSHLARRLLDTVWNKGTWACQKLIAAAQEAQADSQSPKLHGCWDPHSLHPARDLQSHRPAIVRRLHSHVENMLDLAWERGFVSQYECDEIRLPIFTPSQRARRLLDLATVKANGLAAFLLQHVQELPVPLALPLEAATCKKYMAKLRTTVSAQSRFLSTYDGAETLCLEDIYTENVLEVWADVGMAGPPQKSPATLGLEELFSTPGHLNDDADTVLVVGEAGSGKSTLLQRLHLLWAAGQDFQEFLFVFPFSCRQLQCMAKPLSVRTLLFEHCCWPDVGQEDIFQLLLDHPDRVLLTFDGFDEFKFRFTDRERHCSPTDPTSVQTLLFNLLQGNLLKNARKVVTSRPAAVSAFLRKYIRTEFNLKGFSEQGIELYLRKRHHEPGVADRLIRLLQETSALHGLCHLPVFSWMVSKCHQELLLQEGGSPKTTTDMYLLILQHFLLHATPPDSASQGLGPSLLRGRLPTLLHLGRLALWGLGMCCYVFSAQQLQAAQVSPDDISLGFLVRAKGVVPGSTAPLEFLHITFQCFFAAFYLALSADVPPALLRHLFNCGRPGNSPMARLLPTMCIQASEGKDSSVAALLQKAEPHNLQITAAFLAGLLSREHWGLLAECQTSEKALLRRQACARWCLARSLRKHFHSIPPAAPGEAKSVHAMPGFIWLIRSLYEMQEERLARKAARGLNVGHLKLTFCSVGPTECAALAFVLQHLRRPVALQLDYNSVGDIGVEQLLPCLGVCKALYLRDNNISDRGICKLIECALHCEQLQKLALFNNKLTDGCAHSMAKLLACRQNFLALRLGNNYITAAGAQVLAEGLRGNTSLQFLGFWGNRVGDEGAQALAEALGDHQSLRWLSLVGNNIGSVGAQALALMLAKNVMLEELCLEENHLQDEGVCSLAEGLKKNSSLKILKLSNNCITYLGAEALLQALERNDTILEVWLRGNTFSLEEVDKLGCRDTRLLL
Chain of 26S proteasome non-ATPase regulatory subunit 14 (O00487 whole entry): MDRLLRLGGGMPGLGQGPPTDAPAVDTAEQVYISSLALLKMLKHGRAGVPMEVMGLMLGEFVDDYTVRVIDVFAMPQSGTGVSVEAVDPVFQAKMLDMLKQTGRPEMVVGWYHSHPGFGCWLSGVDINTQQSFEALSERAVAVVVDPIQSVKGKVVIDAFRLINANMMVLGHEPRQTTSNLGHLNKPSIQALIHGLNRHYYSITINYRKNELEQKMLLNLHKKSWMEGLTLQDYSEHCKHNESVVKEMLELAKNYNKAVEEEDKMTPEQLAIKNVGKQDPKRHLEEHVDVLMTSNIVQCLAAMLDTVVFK
Chain of 72 kDa type IV collagenase (P08253 whole entry): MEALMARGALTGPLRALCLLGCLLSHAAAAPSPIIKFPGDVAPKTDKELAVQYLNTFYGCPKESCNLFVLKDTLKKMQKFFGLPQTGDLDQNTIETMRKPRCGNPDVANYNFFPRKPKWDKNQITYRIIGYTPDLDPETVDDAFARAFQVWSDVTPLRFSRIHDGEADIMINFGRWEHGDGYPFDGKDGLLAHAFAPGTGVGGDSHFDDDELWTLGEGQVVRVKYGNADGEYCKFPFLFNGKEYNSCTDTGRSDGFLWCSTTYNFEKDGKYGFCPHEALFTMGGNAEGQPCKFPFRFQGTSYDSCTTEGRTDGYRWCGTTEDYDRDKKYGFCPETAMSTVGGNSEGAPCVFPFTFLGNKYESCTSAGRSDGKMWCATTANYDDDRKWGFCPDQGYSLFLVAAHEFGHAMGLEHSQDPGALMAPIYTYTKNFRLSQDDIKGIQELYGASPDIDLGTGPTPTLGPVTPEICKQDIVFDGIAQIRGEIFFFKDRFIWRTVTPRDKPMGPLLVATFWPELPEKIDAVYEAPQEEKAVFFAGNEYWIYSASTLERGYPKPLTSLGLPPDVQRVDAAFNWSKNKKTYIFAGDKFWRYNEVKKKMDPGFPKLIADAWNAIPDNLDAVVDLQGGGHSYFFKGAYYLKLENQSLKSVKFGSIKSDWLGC
Chain of Cytochrome P450 2D6 (P10635 whole entry): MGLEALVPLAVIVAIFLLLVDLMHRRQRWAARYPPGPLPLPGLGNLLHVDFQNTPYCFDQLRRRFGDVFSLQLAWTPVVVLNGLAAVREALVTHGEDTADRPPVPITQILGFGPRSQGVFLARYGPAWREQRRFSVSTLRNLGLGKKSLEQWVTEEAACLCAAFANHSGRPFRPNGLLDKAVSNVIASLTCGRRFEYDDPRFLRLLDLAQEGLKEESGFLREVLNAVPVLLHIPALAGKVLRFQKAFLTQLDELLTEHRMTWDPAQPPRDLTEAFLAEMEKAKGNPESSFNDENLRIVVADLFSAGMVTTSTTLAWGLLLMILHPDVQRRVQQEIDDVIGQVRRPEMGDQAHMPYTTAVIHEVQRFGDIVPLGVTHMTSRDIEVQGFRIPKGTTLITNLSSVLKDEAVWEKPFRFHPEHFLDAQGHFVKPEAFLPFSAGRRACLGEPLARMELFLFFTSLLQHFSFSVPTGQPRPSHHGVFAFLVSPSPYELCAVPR
Chain of FAD-linked sulfhydryl oxidase ALR (P55789 whole entry): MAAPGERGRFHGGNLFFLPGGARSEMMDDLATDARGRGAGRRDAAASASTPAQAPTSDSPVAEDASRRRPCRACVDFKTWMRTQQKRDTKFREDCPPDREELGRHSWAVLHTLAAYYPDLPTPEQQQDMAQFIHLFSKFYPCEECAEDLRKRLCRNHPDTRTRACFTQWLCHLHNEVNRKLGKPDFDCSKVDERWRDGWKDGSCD

Which AC50 [1] does the source give for O=C(c1cc(O)c(O)c([N+](=O)[O-])c1)c1ccccc1F here?
The AC50 was 95 µM (active).

And the AC50 [2]?
The AC50 was 3.2 µM (active).

With Cc1cc(NCc2ccc(F)cc2Cl)n2nnnc2n1 as the compound, how does the IC50 [3] read?
Its IC50 is 12.1 µM (active).

And the IC50 [4]?
Its IC50 is 15.7 µM (active).

Which IC50 [5] does the source give for Oc1nc(Nc2ccc(Cl)cc2Cl)sc1/C=C1\C=Nc2ccccc21 here?
The IC50 was 36.5 µM (active).

And the IC50 [3]?
The IC50 was 1.5 µM (active).

What about the IC50 [4] of the same compound?
The IC50 was 2.64 µM (active).

And the EC50 [6]?
Its EC50 is 1.27 µM (active).

What about the IC50 [7] of the same compound?
Its IC50 is 38.3 µM (active).

What about the EC50 [8] of the same compound?
The EC50 was 2.61 µM (active).

What about the IC50 [9] of the same compound?
Its IC50 is > 100 µM (inactive).

With CCOC(=O)C1Nc2c(O)cc(C)cc2C2C=CCC12 (configuration not stated) as the compound, how does the IC50 [10] read?
The IC50 was > 100 µM (not active).

And the IC50 [11]?
The IC50 was > 100 µM (inactive).

And the IC50 [12]?
Its IC50 is > 100 µM (not active).

And the IC50 [13]?
Its IC50 is > 100 µM (inactive).

With O=C(CSc1nnc2scc(-c3ccccc3)n12)Nc1nsc(-c2ccccc2)n1 as the compound, how does the IC50 [10] read?
Its IC50 is 12.8 µM (active).

And the IC50 [14]?
The IC50 was > 100 µM (not active).

What about the IC50 [11] of the same compound?
Its IC50 is 6.9 µM (active).

What about the IC50 [15] of the same compound?
The IC50 was > 100 µM (not active).

What about the IC50 [16] of the same compound?
Its IC50 is 11 µM (active).

What about the IC50 [12] of the same compound?
The IC50 was 27.4 µM (active).

What about the IC50 [13] of the same compound?
Its IC50 is 9.41 µM (active).

And the IC50 [17]?
Its IC50 is 6.59 µM (active).

Which CC50 [18] does the source give for CCC(=O)Nc1nc2ccccc2n1Cc1ccccc1 here?
The CC50 was > 20 µM (active).

What about the IC50 [19] of the same compound?
The IC50 was > 20 µM (inactive).

And the IC50 [20]?
The IC50 was 6.75 µM (active).

And the IC50 [21]?
Its IC50 is > 20 µM (inactive).

What about the IC50 [22] of the same compound?
Its IC50 is > 20 µM (inactive).

What about the CC50 [23] of the same compound?
Its CC50 is > 40 µM (active).

What about the IC50 [24] of the same compound?
Its IC50 is > 20 µM (inactive).

With O=C(Oc1ccc(-c2ccccc2)cc1)c1cccc2c1NC(C(=O)O)C1CC=CC21 (configuration not stated) as the compound, how does the IC50 [10] read?
The IC50 was 5.62 µM (active).

And the IC50 [14]?
The IC50 was > 100 µM (not active).

What about the IC50 [11] of the same compound?
The IC50 was 3.4 µM (active).

What about the IC50 [15] of the same compound?
Its IC50 is > 100 µM (not active).

What about the IC50 [12] of the same compound?
Its IC50 is > 100 µM (not active).

What about the IC50 [13] of the same compound?
Its IC50 is 3.5 µM (active).

Which results are given for Cc1ccccc1NC(=O)/C(=C/c1ccccc1)c1ccccc1?
IC50 [3]: 9.58 µM (active); AC50 [25]: 14.1 µM (inconclusive); IC50 [4]: 10.8 µM (active); EC50 [26]: 9.09 µM (active)

Which AC50 [27] does the source give for COc1ccccc1C1CCN(c2cc(O)ccc2[N+](=O)[O-])CC1 here?
The AC50 was 4.38 µM (active).

For CN(c1ccccc1)S(=O)(=O)c1cccc(NC(=O)CN2C(=O)NC3(CCCC3)C2=O)c1, which AC50 [1] is on record?
Its AC50 is 40.1 µM (active).

Which results are given for O=C(Cc1ccccc1)Nc1nc2ccccc2n1Cc1ccc(Cl)cc1?
IC50 [19]: > 20 µM (inactive); IC50 [21]: > 20 µM (inactive); IC50 [22]: > 20 µM (inactive); IC50 [24]: > 20 µM (inactive)

For Cc1cc(C)nc(SC(C)C(=O)N/N=C/c2cccs2)n1 (configuration not stated), which AC50 [1] is on record?
Its AC50 is 22.1 µM (active).
